Patent US20240190880A1 (THE REGENTS OF THE UNIVERSITY OF MICHIGAN, priority 2021, published 2024)

What follows are compounds tested against T1, ER (Homo sapiens, UniProt P03372) (assay: ER degradation activity, in-cell western blot analysis in T47D cells). Conditions: 16 hours, Table A does not say which cell line (T47D or MCF7), read-out: Potency (DC50).
T1 construct: host or cells: T47D and MCF7 human breast cancer cells
T1 sequence (P03372 1-595): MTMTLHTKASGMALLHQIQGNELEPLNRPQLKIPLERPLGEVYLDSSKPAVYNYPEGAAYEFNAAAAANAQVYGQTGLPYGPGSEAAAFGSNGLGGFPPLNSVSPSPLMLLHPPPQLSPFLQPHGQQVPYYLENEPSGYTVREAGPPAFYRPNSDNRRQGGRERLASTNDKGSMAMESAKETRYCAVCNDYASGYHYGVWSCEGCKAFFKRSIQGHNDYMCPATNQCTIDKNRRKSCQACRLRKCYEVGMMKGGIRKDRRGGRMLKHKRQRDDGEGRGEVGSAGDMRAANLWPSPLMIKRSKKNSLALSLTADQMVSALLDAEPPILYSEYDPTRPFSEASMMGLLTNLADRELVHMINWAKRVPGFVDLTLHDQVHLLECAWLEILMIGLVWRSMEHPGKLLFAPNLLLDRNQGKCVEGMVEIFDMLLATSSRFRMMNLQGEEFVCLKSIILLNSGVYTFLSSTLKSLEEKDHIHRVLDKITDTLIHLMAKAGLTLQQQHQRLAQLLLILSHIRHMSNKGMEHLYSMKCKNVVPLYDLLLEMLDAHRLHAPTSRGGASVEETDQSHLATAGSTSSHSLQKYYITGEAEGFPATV
Type: cell-based
In short: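 T47D cells grown in DMEM with 10% FBS were treated with compounds for 16 hours at 0.5% DMSO final. ER was detected by in-cell western using 680/800 near-infrared secondary antibodies. Residual ER is given as percent of untreated and DMSO-treated wells set to 100%.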

Row | DC50 [nM] | SMILES
1 | 10 to 100 | O=C1CCC(N2C(=O)c3cc4c(cc3C2=O)CN(CC(=O)N2CCC3(CC2)CCN(c2ccc(C(=C(CCCl)c5ccc(F)cc5)c5ccc(O)cc5)cc2)CC3)CC4)C(=O)N1 (centres unmarked) [E 193]
2 | 10 to 100 | CCC(=C(c1ccc(O)cc1)c1ccc(N2CCC3(CC2)CN(C(=O)CN2CCc4cc5c(cc4C2)C(=O)N(C2CCC(=O)NC2=O)C5=O)C3)cc1)c1ccccc1 (centres unmarked) [E 194, 2-(2,6-dioxopiperidin-3-yl)-6-(2-(7-(4-(1-(4-hydroxyphenyl)-2-phenylbut-1-en-1-yl)phenyl)-2,7-diazaspiro[3.5]nonan-2-yl)-2-oxoethyl)-5,6,7,8-tetrahydro-1H-pyrrolo[3,4-g]isoquinoline-1,3(2H)-dione]
3 | 10 to 100 | O=C1CCC(N2C(=O)c3cc4c(cc3C2=O)CN(CC(=O)N2CCC3(CC2)CCN(c2ccc(C(=C(CCCl)c5ccc(F)cc5)c5ccc(O)cc5)cc2)CC3)C4)C(=O)N1 (centres unmarked) [E 196, 6-(2-(9-(4-(4-chloro-2-(4-fluorophenyl)-1-(4-hydroxyphenyl)but-1-en-1-yl)phenyl)-3,9-diazaspiro[5.5]undecan-3-yl)-2-oxoethyl)-2-(2,6-dioxopiperidin-3-yl)-6,7-dihydropyrrolo[3,4-f]isoindole-1,3(2H,5H)-dione]
4 | 10 to 100 | O=C1CCC(N2C(=O)c3cc4c(cc3C2=O)CN(CC(=O)N2CCC3(CC2)CCN(c2ccc(C(=C(CCCl)c5ccccc5)c5ccc(B(O)O)cc5)cc2)CC3)C4)C(=O)N1 (centres unmarked) [E 197, (4-(4-chloro-1-(4-(9-(2-(6-(2,6-dioxopiperidin-3-yl)-5,7-dioxo-3,5,6,7-tetrahydropyrrolo[3,4-f]isoindol-2(1H)-yl)acetyl)-3,9-diazaspiro[5.5]undecan-3-yl)phenyl)-2-phenylbut-1-en-1-yl)phenyl)boronic acid]

Further lines, the compound ahead of its results:

Row | SMILES | DC50 [nM]
5 | O=C1CCC(N2C(=O)c3cc4c(cc3C2=O)CN(CC(=O)N2CCC3(CC2)CCN(c2ccc(C(=C(CCCl)c5ccccc5)c5ccc(O)cc5)cc2)C3)C4)C(=O)N1 (centres unmarked) [E 190, 6-(2-(2-(4-(4-chloro-1-(4-hydroxyphenyl)-2-phenylbut-1-en-1-yl)phenyl)-2,8-diazaspiro[4.5]decan-8-yl)-2-oxoethyl)-2-(2,6-dioxopiperidin-3-yl)-6,7-dihydropyrrolo[3,4-f]isoindole-1,3(2H,5H)-dione] | 10 to 100
6 | O=C1CCC(N2C(=O)c3cc4c(cc3C2=O)CN(C(=O)CN2CCC3(CC2)CCN(c2ccc(C(=C(CCCl)c5ccccc5)c5ccc(O)cc5)cc2)C3)C4)C(=O)N1 (centres unmarked) [E 191, 6-(2-(2-(4-(4-chloro-1-(4-hydroxyphenyl)-2-phenylbut-1-en-1-yl)phenyl)-2,8-diazaspiro[4.5]decan-8-yl)acetyl)-2-(2,6-dioxopiperidin-3-yl)-6,7-dihydropyrrolo[3,4-f]isoindole-1,3(2H,5H)-dione] | 10 to 100
7 | CCC(=C(c1ccc(O)cc1)c1ccc(N2CCC3(CCN(CC(=O)N4Cc5cc6c(cc5C4)C(=O)N(C4CCC(=O)NC4=O)C6=O)CC3)C2)cc1)c1ccccc1 (centres unmarked) [E 192, 2-(2,6-dioxopiperidin-3-yl)-6-(2-(2-(4-(1-(4-hydroxyphenyl)-2-phenylbut-1-en-1-yl)phenyl)-2,8-diazaspiro[4.5]decan-8-yl)acetyl)-6,7-dihydropyrrolo[3,4-f]isoindole-1,3(2H,5H)-dione] | 10 to 100
8 | O=C1CCC(N2C(=O)c3cc4c(cc3C2=O)CN(C(=O)CN2CCC3(CC2)CCN(c2ccc(C(=C(CCCl)c5ccccc5)c5ccc(O)cc5)cc2)CC3)C4)C(=O)N1 (centres unmarked) [E 195, 6-(2-(9-(4-(4-chloro-1-(4-hydroxyphenyl)-2-phenylbut-1-en-1-yl)phenyl)-3,9-diazaspiro[5.5]undecan-3-yl)acetyl)-2-(2,6-dioxopiperidin-3-yl)-6,7-dihydropyrrolo[3,4-f]isoindole-1,3(2H,5H)-dione] | 10 to 100
